According to the NIST ThermoML archive (doi:10.1016/j.jct.2016.01.021):
± gives the expanded uncertainty stated by the source.

Experiment: xn = mol fraction of the nth substance listed
Details: 100 kPa, Liquid; for viscosity: Capillary tube (Ostwald / Ubbelohde) method; for mass density: Vibrating tube method

## CCCCCCCCCCCC(=O)OCC [ethyl dodecanoate] + CCCCCCCCCCCCCCCC
298.15 K, x2 = 0
  viscosity: 3.015 ± 0.064 mPa·s
  mass density: 858.19 ± 0.83 kg/m3
298.15 K, x2 = 0.1
  viscosity: 2.977 ± 0.063 mPa·s
  mass density: 848.2 ± 0.83 kg/m3
298.15 K, x2 = 0.2
  viscosity: 2.954 ± 0.063 mPa·s
  mass density: 838.49 ± 0.83 kg/m3
298.15 K, x2 = 0.3
  viscosity: 2.935 ± 0.062 mPa·s
  mass density: 829.03 ± 0.83 kg/m3
298.15 K, x2 = 0.4
  viscosity: 2.925 ± 0.062 mPa·s
  mass density: 819.83 ± 0.83 kg/m3
298.15 K, x2 = 0.5
  viscosity: 2.923 ± 0.062 mPa·s
  mass density: 810.88 ± 0.83 kg/m3
298.15 K, x2 = 0.6
  viscosity: 2.933 ± 0.062 mPa·s
  mass density: 802.18 ± 0.83 kg/m3
298.15 K, x2 = 0.7
  viscosity: 2.952 ± 0.063 mPa·s
  mass density: 793.76 ± 0.83 kg/m3
298.15 K, x2 = 0.7999
  viscosity: 2.98 ± 0.063 mPa·s
  mass density: 785.59 ± 0.83 kg/m3
298.15 K, x2 = 0.9
  viscosity: 3.024 ± 0.064 mPa·s
  mass density: 777.65 ± 0.83 kg/m3
303.15 K, x2 = 0
  viscosity: 2.704 ± 0.057 mPa·s
  mass density: 854.3 ± 0.83 kg/m3
303.15 K, x2 = 0.1
  viscosity: 2.673 ± 0.057 mPa·s
  mass density: 844.34 ± 0.83 kg/m3
303.15 K, x2 = 0.2
  viscosity: 2.65 ± 0.056 mPa·s
  mass density: 834.69 ± 0.83 kg/m3
303.15 K, x2 = 0.3
  viscosity: 2.632 ± 0.056 mPa·s
  mass density: 825.27 ± 0.83 kg/m3
303.15 K, x2 = 0.4
  viscosity: 2.624 ± 0.056 mPa·s
  mass density: 816.11 ± 0.83 kg/m3
303.15 K, x2 = 0.5
  viscosity: 2.623 ± 0.056 mPa·s
  mass density: 807.21 ± 0.83 kg/m3
303.15 K, x2 = 0.6
  viscosity: 2.629 ± 0.056 mPa·s
  mass density: 798.55 ± 0.83 kg/m3
303.15 K, x2 = 0.7
  viscosity: 2.645 ± 0.056 mPa·s
  mass density: 790.18 ± 0.83 kg/m3
303.15 K, x2 = 0.7999
  viscosity: 2.668 ± 0.057 mPa·s
  mass density: 782.04 ± 0.83 kg/m3
303.15 K, x2 = 0.9
  viscosity: 2.706 ± 0.058 mPa·s
  mass density: 774.14 ± 0.83 kg/m3
308.15 K, x2 = 0
  viscosity: 2.439 ± 0.052 mPa·s
  mass density: 850.4 ± 0.83 kg/m3
308.15 K, x2 = 0.1
  viscosity: 2.412 ± 0.051 mPa·s
  mass density: 840.49 ± 0.83 kg/m3
308.15 K, x2 = 0.2
  viscosity: 2.392 ± 0.051 mPa·s
  mass density: 830.88 ± 0.83 kg/m3
308.15 K, x2 = 0.3
  viscosity: 2.377 ± 0.051 mPa·s
  mass density: 821.51 ± 0.83 kg/m3
308.15 K, x2 = 0.4
  viscosity: 2.368 ± 0.05 mPa·s
  mass density: 812.4 ± 0.83 kg/m3
308.15 K, x2 = 0.5
  viscosity: 2.367 ± 0.05 mPa·s
  mass density: 803.54 ± 0.83 kg/m3
308.15 K, x2 = 0.6
  viscosity: 2.372 ± 0.05 mPa·s
  mass density: 794.93 ± 0.83 kg/m3
308.15 K, x2 = 0.7
  viscosity: 2.384 ± 0.051 mPa·s
  mass density: 786.59 ± 0.83 kg/m3
308.15 K, x2 = 0.7999
  viscosity: 2.403 ± 0.051 mPa·s
  mass density: 778.5 ± 0.83 kg/m3
308.15 K, x2 = 0.9
  viscosity: 2.433 ± 0.052 mPa·s
  mass density: 770.64 ± 0.83 kg/m3
313.15 K, x2 = 0
  viscosity: 2.213 ± 0.047 mPa·s
  mass density: 846.5 ± 0.83 kg/m3
313.15 K, x2 = 0.1
  viscosity: 2.188 ± 0.047 mPa·s
  mass density: 836.63 ± 0.83 kg/m3
313.15 K, x2 = 0.2
  viscosity: 2.169 ± 0.046 mPa·s
  mass density: 827.07 ± 0.83 kg/m3
313.15 K, x2 = 0.3
  viscosity: 2.155 ± 0.046 mPa·s
  mass density: 817.75 ± 0.83 kg/m3
313.15 K, x2 = 0.4
  viscosity: 2.149 ± 0.046 mPa·s
  mass density: 808.68 ± 0.83 kg/m3
313.15 K, x2 = 0.5
  viscosity: 2.146 ± 0.046 mPa·s
  mass density: 799.87 ± 0.83 kg/m3
313.15 K, x2 = 0.6
  viscosity: 2.15 ± 0.046 mPa·s
  mass density: 791.3 ± 0.83 kg/m3
313.15 K, x2 = 0.7
  viscosity: 2.16 ± 0.046 mPa·s
  mass density: 783.01 ± 0.83 kg/m3
313.15 K, x2 = 0.7999
  viscosity: 2.179 ± 0.046 mPa·s
  mass density: 774.96 ± 0.83 kg/m3
313.15 K, x2 = 0.9
  viscosity: 2.203 ± 0.047 mPa·s
  mass density: 767.14 ± 0.83 kg/m3
318.15 K, x2 = 0
  viscosity: 2.016 ± 0.043 mPa·s
  mass density: 842.6 ± 0.83 kg/m3
318.15 K, x2 = 0.1
  viscosity: 1.996 ± 0.042 mPa·s
  mass density: 832.77 ± 0.83 kg/m3
318.15 K, x2 = 0.2
  viscosity: 1.978 ± 0.042 mPa·s
  mass density: 823.26 ± 0.83 kg/m3
318.15 K, x2 = 0.3
  viscosity: 1.966 ± 0.042 mPa·s
  mass density: 813.99 ± 0.83 kg/m3
318.15 K, x2 = 0.4
  viscosity: 1.959 ± 0.042 mPa·s
  mass density: 804.97 ± 0.83 kg/m3
318.15 K, x2 = 0.5
  viscosity: 1.957 ± 0.042 mPa·s
  mass density: 796.19 ± 0.83 kg/m3
318.15 K, x2 = 0.6
  viscosity: 1.959 ± 0.042 mPa·s
  mass density: 787.68 ± 0.83 kg/m3
318.15 K, x2 = 0.7
  viscosity: 1.967 ± 0.042 mPa·s
  mass density: 779.43 ± 0.83 kg/m3
318.15 K, x2 = 0.7999
  viscosity: 1.981 ± 0.042 mPa·s
  mass density: 771.42 ± 0.83 kg/m3
318.15 K, x2 = 0.9
  viscosity: 2.003 ± 0.043 mPa·s
  mass density: 763.64 ± 0.83 kg/m3
323.15 K, x2 = 0
  viscosity: 1.846 ± 0.039 mPa·s
  mass density: 838.7 ± 0.83 kg/m3
323.15 K, x2 = 0.1
  viscosity: 1.832 ± 0.039 mPa·s
  mass density: 828.91 ± 0.83 kg/m3
323.15 K, x2 = 0.2
  viscosity: 1.813 ± 0.039 mPa·s
  mass density: 819.45 ± 0.83 kg/m3
323.15 K, x2 = 0.3
  viscosity: 1.801 ± 0.038 mPa·s
  mass density: 810.22 ± 0.83 kg/m3
323.15 K, x2 = 0.4
  viscosity: 1.795 ± 0.038 mPa·s
  mass density: 801.25 ± 0.83 kg/m3
323.15 K, x2 = 0.5
  viscosity: 1.793 ± 0.038 mPa·s
  mass density: 792.52 ± 0.83 kg/m3
323.15 K, x2 = 0.6
  viscosity: 1.795 ± 0.038 mPa·s
  mass density: 784.05 ± 0.83 kg/m3
323.15 K, x2 = 0.7
  viscosity: 1.8 ± 0.038 mPa·s
  mass density: 775.84 ± 0.83 kg/m3
323.15 K, x2 = 0.7999
  viscosity: 1.813 ± 0.039 mPa·s
  mass density: 767.88 ± 0.83 kg/m3
323.15 K, x2 = 0.9
  viscosity: 1.833 ± 0.039 mPa·s
  mass density: 760.14 ± 0.83 kg/m3
